Source: paper PMC7583830 (Molecules, 2020)
Several values for one entry are separate records, joined by “and”; a condition that tells them apart may be missing. Equal values may be shown once. Read-outs that look alike come from different tables or passages of the source. Where a SMILES comes first, the peptide text is derived from it. [ ]: non-standard residue; d: D form. The star is where a group is joined. DOTA = O=C(O)CN1CCN(CC(=O)O)CCN(CC(=O)*)CCN(CC(=O)O)CC1; 1Nal = N[C@@H](Cc1cccc2ccccc12)C(=O)O; NMeNle = CCCC[C@H](NC)C(=O)O

Key:
[1] = Stability in rat liver homogenate; format: in vitro ADME
Procedure: (§1) In vitro stability studies for the characterization of the metabolic stability of the radiolabeled peptide analogs in human serum were carried out with [^177Lu]Lu-1, [^177Lu]Lu-M1, [^177Lu]Lu-M2, [^177Lu]Lu-M3 and [^177Lu]Lu-M4 (n = 2). Additional stability studies in rat liver and kidney homogenates were performed for [^177Lu]Lu-1 (n = 2). Tissue homogenates were prepared from dissected organs by homogenization for 1 min at RT (IKA-Werke, Staufen, Germany) in 20 mM HEPES buffer pH 7.3 (30% v/v). The radioligands were incubated in the different media at a concentration of 500 pmol/mL (corresponding to an activity of 6–11 MBq). After incubation at 37 °C at different time points for up to 24 h, a 100 µl sample was taken in duplicates and analyzed by HPLC. Samples obtained from human serum and rat homogenates were treated with ACN at a ratio of 1:1.5 (v/v) to precipitate proteins, centrifuged (14,000 rpm, 2 min, centrifuge 5424, Eppendorf AG, Germany) and diluted with water at a ratio of 1:1 (v/v). A 100 µl aliquot of this solution was injected into the radio HPLC system. The degradation of the radioligand was evaluated based on the radiochemical purity after radiolabeling and the percentage of intact radiopeptide observed during incubation in the different media.

[2] = Biodistribution in BALB/c mice; format: in vivo; conditions: for tissue uptake at 0.5 h / tissue uptake at 1 h / tissue uptake at 10 min: female, BALB/c, mouse, iv, total radioactivity; for tissue uptake at 0.5 h: 30 min p.i.; for tissue uptake at 1 h: 1 h p.i.
Procedure: (§2) Metabolic biodistribution studies were performed in accordance with the ethical standards of the institution and approved by the Austrian Ministry of Science (BMWFW-66.011/0072-V/3b/2019). These studies were carried out in 5- to 7-week-old female BALB/c mice (n = 3) injected with [^177Lu]Lu-1 via a lateral tail vein. To allow monitoring of the metabolites by radio-HPLC, mice were injected with 30 MBq corresponding to 0.8 nmol total peptide. The mice were euthanized by cervical dislocation after different time points of 10 min, 30 min and 1 h p.i. and the urine and a venous blood sample were collected at the time of sacrifice. Liver and kidneys were dissected and homogenized in 20 mM HEPES buffer pH 7.3 at a ratio of 1:1 (v/v) with an Ultra-Turrax T8 homogenizer (IKA-Werke, Staufen, Germany) for 1 min at RT. Before radio-HPLC analysis, the samples (except urine) were treated with ACN at a ratio of 1:1 (v/v) to precipitate proteins, centrifuged at 2000× g for 2 min and diluted with water at a ratio of 1:1 (v/v). For HPLC analysis of the samples, the analytical HPLC system described above with a flow rate of 1 mL/min was used together with the following optimized water/ACN/0.1% TFA gradient to allow a better separation of [^177Lu]Lu-1 and the different radiometabolites: 0–7 min 1–7% ACN, 7–8 min 7–10% ACN, 8–18 min 10–18% ACN, 18–20 min 18–32% ACN, 20–27 min 32% ACN, 27–37 min […], 37–40 min 80% ACN, 40–40.1 min 80–1% ACN, 40.1–45 min 1% ACN. Urine was measured with the low-sensitivity loop of the radiodetector. The remaining samples were analyzed with the high-sensitivity loop due to the lower radioactivity present in blood, liver and kidney homogenate. To quantify the percentage of intact [^177Lu]Lu-1 and [^177Lu]Lu-M1 showing some overlap in the radiochromatogram when using the high-sensitivity loop of the radiodetector, the two radiopeptides were co-injected at different known ratios to enable a more accurate separation and integration of the two peaks (see supporting Figure S4). Mice from the metabolic biodistribution studies were subjected to a further dissection of all remaining tissues (blood, lung, heart, femur, spleen, muscle, intestine, pancreas and stomach). All organs, also including liver and kidneys, were weighed, and their radioactivity was measured in the gamma counter together with a standard and the residual body. To quantify the uptake of radioactivity in liver and kidneys, a part of liver and kidney homogenate was measured in the gamma counter to extrapolate the radioactivity for the whole organ.

[3] = Distribution coefficient (logD) in octanol/PBS; format: physicochemical; conditions: octanol/PBS pH 7.4; read-out: logD
Procedure: The mixture was vigorously vortexed at room temperature over a period of 15 min using a small shaker (MS3 Basic, IKA, Staufen, Germany) with speed of 1500 rpm.

[4] = Metabolic stability in vivo and radiometabolites (radio-HPLC of blood, urine, liver, kidney); design: species or system BALB/c mice
Procedure: as §2

[5] = Stability in fresh human serum (radio-HPLC); format: in vitro ADME; conditions: 24 h incubation, 37 °C
Procedure: as §1

[6] = Stability in rat kidney homogenate; format: in vitro ADME
Procedure: as §1

[7] = blood, 30 MBq, read-out: uptake in blood
[8] = femur, 30 MBq, read-out: uptake in femur
[9] = heart, 30 MBq, read-out: uptake in heart
[10] = intestine, 30 MBq, read-out: uptake in intestine
[11] = kidneys, 30 MBq, read-out: uptake in kidneys
[12] = liver, 30 MBq, read-out: uptake in liver
[13] = lung, 30 MBq, read-out: uptake in lung
[14] = muscle, 30 MBq, read-out: uptake in muscle
[15] = pancreas, 30 MBq, read-out: uptake in pancreas
[16] = spleen, 30 MBq, read-out: uptake in spleen
[17] = stomach, 30 MBq, read-out: uptake in stomach

Compound: CCCC[C@@H](C(=O)N[C@@H](CC(=O)O)C(=O)N[C@@H](Cc1cccc2ccccc12)C(N)=O)N(C)C(=O)[C@H](Cc1c[nH]c2ccccc12)NC(=O)CNC(=O)[C@H](Cc1ccc(O)cc1)NC(=O)[C@@H]1CCCN1C(=O)[C@@H](CCC(=O)O)NC(=O)CN1CCN(CC(=O)O)CCN(CC(=O)O)CCN(CC(=O)O)CC1 [[^177Lu]Lu-1, metal not drawn] ({DOTA}-[dE]PYGW[NMeNle]D[1Nal]-NH2)
- intact radiopeptide ([1]; 30 min): 83.6 ± 0.2% and 84%
- intact radiopeptide ([1]; 2 h): 52.9 ± 2.0% and > 50%
- intact radiopeptide ([1]; 24 h): 49.3 ± 1.7%
- intact radiopeptide ([1]; up to 20 min incubation): > 90%
- whole body activity ([2]; 10 min p.i.): 61.78 % IA
- whole body activity ([2]; 1 h after injection): 12.27 % IA
- tissue uptake at 0.5 h [2, 7]: 5.08 %ID/g
- tissue uptake at 1 h [2, 7]: 2.05 %ID/g
- tissue uptake at 10 min ([2]; blood, 10 min p.i., 30–40 MBq, 0.8 nmol, read-out: uptake in blood): 17.8 %ID/g
- tissue uptake at 10 min ([2]; femur, 30 MBq, 10 min p.i., read-out: uptake in femur): 5.97 %ID/g
- tissue uptake at 0.5 h [2, 8]: 1.28 %ID/g
- tissue uptake at 1 h [2, 8]: 0.52 %ID/g
- tissue uptake at 10 min ([2]; heart, 30 MBq, 10 min p.i., read-out: uptake in heart): 7.13 %ID/g
- tissue uptake at 0.5 h [2, 9]: 2.72 %ID/g
- tissue uptake at 1 h [2, 9]: 0.99 %ID/g
- tissue uptake at 10 min ([2]; intestine, 30 MBq, 10 min p.i., read-out: uptake in intestine): 2.63 %ID/g
- tissue uptake at 0.5 h [2, 10]: 1.61 %ID/g
- tissue uptake at 1 h [2, 10]: 1.02 %ID/g
- tissue uptake at 10 min ([2]; kidneys, 30 MBq, 10 min p.i., read-out: uptake in kidneys): 14.5 %ID/g
- tissue uptake at 0.5 h [2, 11]: 10.8 %ID/g
- tissue uptake at 1 h [2, 11]: 7.01 %ID/g
- tissue uptake at 10 min ([2]; liver, 30 MBq, 10 min p.i., read-out: uptake in liver): 5.37 %ID/g
- tissue uptake at 0.5 h [2, 12]: 2.95 %ID/g
- tissue uptake at 1 h [2, 12]: 1.26 %ID/g
- tissue uptake at 10 min ([2]; lung, 30 MBq, 10 min p.i., read-out: uptake in lung): 17.4 %ID/g
- tissue uptake at 0.5 h [2, 13]: 5.03 %ID/g
- tissue uptake at 1 h [2, 13]: 1.95 %ID/g
- tissue uptake at 10 min ([2]; muscle, 30 MBq, 10 min p.i., read-out: uptake in muscle): 2.56 %ID/g
- tissue uptake at 0.5 h [2, 14]: 1.03 %ID/g
- tissue uptake at 1 h [2, 14]: 0.36 %ID/g
- tissue uptake at 10 min ([2]; pancreas, 30 MBq, 10 min p.i., read-out: uptake in pancreas): 3.39 %ID/g
- tissue uptake at 0.5 h [2, 15]: 1.76 %ID/g
- tissue uptake at 1 h [2, 15]: 0.84 %ID/g
- tissue uptake at 10 min ([2]; spleen, 30 MBq, 10 min p.i., read-out: uptake in spleen): 3.7 %ID/g
- tissue uptake at 0.5 h [2, 16]: 2 %ID/g
- tissue uptake at 1 h [2, 16]: 0.79 %ID/g
- tissue uptake at 10 min ([2]; stomach, 30 MBq, 10 min p.i., read-out: uptake in stomach): 3.36 %ID/g
- tissue uptake at 0.5 h [2, 17]: 2.29 %ID/g
- tissue uptake at 1 h [2, 17]: 1.39 %ID/g
- washout at 1 h versus 10 min p.i. ([2]; non-excretory organs (blood, lung, heart, femur, spleen and muscle)): 79–91%
- percentage decrease of radioactivity at 1 h versus 10 min p.i. ([2]; pancreas): 75%
- percentage decrease of radioactivity at 1 h versus 10 min p.i. ([2]; stomach): 59%
- logD [3]: -1.96 ± 0.07
- total amount of radiometabolites ([4]; blood, 10 min p.i.): 19.5%
- total amount of radiometabolites ([4]; blood, 30 min p.i.): 35.9%
- percentage of intact radiopeptide / radiometabolite ([4]; blood, 30 min p.i., mice injected i.v. with [177Lu]Lu-1): 64.1%
- total amount of radiometabolites ([4]; blood, 60 min p.i.): 43.1%
- percentage of intact radiopeptide / radiometabolite ([4]; blood, 60 min p.i., mice injected i.v. with [177Lu]Lu-1): 56.9%
- percentage of intact radiopeptide / radiometabolite ([4]; kidney homogenate soluble phase, 10 min p.i.): 29.7%
- percentage of intact radiopeptide / radiometabolite ([4]; kidney, 30 min p.i.): 18.0%
- percentage of intact radiopeptide / radiometabolite ([4]; kidney, 60 min p.i.): 7.0%
- intact radiopeptide ([4]; kidneys and urine, studied time points): < 30%
- percentage of intact radiopeptide / radiometabolite ([4]; liver homogenate soluble phase, 10 min p.i.): 71.9%
- percentage of intact radiopeptide / radiometabolite ([4]; liver, 30 min p.i.): 53.9%
- percentage of intact radiopeptide / radiometabolite ([4]; liver, 60 min p.i.): 47.7%
- percentage of intact radiopeptide / radiometabolite ([4]; urine, 10 min p.i.): 29.1% and 29%
- percentage of intact radiopeptide / radiometabolite ([4]; urine, 30 min p.i.): 19.4%
- percentage of intact radiopeptide / radiometabolite ([4]; urine, 60 min p.i.): 18%
- intact radiopeptide [5]: 96.2 ± 1.3%
- intact radiopeptide ([6]; 20 min): 65.6 ± 2.8%
- intact radiopeptide ([6]; 30 min): 43.9 ± 1.0% and 44%
- intact radiopeptide ([6]; 2 h): < 5%
- intact radiopeptide ([6]; 24 h): < 1%
